Data set [1] addresses T1, human 20S proteasome (H20S), chymotrypsin-like β5 activity (Homo sapiens, UniProt P20618+P28074).
T1 construct: variant as stated: H20S
As to the kind of experiment: Human 20S proteasome kinetic assay (chymotrypsin-like β5 activity). To be noted: purified human 20S proteasome, β5 activity, substrate LLVY-R110, fluorescence; duplicate; read-out: IC50, nM H20S inhibition. It is filed as biochemical. As for the experimental part: (§1) The fluorescent Proteasome substrate LLVY-R110 (ex: 490 nm, Em:525 nm) (#MAK172, Sigma-Aldrich) was used to measure the chymotrypsin-like activity (β5) of the human 20S proteasome and was prepared according to the activity assay kit instructions. Cleavage of this peptide generated intense green fluorescence due to the R110 group and was monitored at 520-530 nm with excitation at 480-500 nm. The purified human 20S proteasome (BML-PW8720-0050, EnzoSciences), stored at 1mg/ml in 20 mM Tris-HCl pH 7.2, 1mM EDTA, 1mM DTT 1mM NaN3, 50% glycerol was diluted in TRIS-buffered saline (TBS, pH 7.4) to an intermediate concentration of 0.44 μM. […] The reactions were performed in white 96-well fluorescent microtiter-plate format (Nunc). The Substrate solution was added first (100 μl), followed by 1 μl of the inhibitor (50 μM intermediate stock) and 1 μl of the H20S proteasome at 0.44 μM. The IC50s were determined for a selection of potent PfSUB1 inhibitors. After sequential dilution of the inhibitors in 100% DMSO, 1 μl of each dilution was used in a 100 μl reaction containing the fluorescent substrate. The reaction was initiated by the addition of 1 μl of the 20S proteasome intermediate stock solution. The fluorescence increase was monitored using a SpectraMax M5e plate reader and SoftMax Pro-6.3 software Measure activity on a plate reader (ex: 490 nm, Em: 525 nm) with the photomultiplier tube (PMT) set to medium with readings every 3 min for one hour. All measurements were done in duplicate. The progress curves were plotted within GraphPad Prism 9.5.0.

A further data set relates to P. falciparum line B11. As to the kind of experiment: Parasite growth assay, wild-type B11 line. Format: cell-based. To be noted: Plasmodium falciparum, 96 h, read-out: EC50 parasite growth, B11 line. An excerpt: The DiCre-expressing P. falciparum line B11 (derived from a 3D7 background) has been described in full previously.[45] […] Briefly, the B11 line was first modified by the incorporation into the genomic Pfs47 locus of a cassette for constitutive expression of a TetR-DOZI fusion protein. The 3’ flanking region of the SUB1 gene was then modified by incorporation of 10 Tet repressor-binding aptamers, following by limiting dilution cloning to obtain a genetically homogenous line called 1AC5. […] Complete details of the characterization of this parasite line will be provided in a separate manuscript.
(§2) The effects of test compounds on in vitro growth of the B11 and 1AC5 P. falciparum lines was determined by flow cytometry as described previously.[48] Briefly, synchronous ring-stage parasites at 0.1% parasitaemia and 2% haematocrit were dispensed into flat-bottomed 96-well culture plates (200 ul per well) each containing 1 ul of appropriate serial dilutions of boronic acid or control antimalarial compounds in DMSO. Control wells contained DMSO only. Following incubation in sealed, humidified gassed chambers at 37°C for 96 h to allow the parasites to undergo two entire cycles of erythrocytic growth, cells were fixed, stained with SYBR green and analysed by flow cytometry on a BD FACSVerse™ using BD FACSuite™ software. Data were analysed using FlowJo software. EC50 values and statistical data were determined from dose-response curves generated using GraphPad Prism 10 (GraphPad Software).

Data set [2] relates to P. falciparum line 1AC5 (8-10-fold reduced PfSUB1). As to the kind of experiment: Parasite growth assay, PfSUB1 knock-down 1AC5 line. Format: cell-based, Plasmodium falciparum. To be noted: for EC50: Plasmodium falciparum, 96 h, read-out: EC50 parasite growth, 1AC5 line.
From the text: The DiCre-expressing P. falciparum line B11 (derived from a 3D7 background) has been described in full previously.[45] To generate a mutant line selectively expressing reduced levels of PfSUB1, we exploited the anhydrotetracycline (aTc)-inducible TetR aptamer system described by Niles and colleagues[46] and subsequently adapted by Rajaram et al.[47] Briefly, the B11 line was first modified by the incorporation into the genomic Pfs47 locus of a cassette for constitutive expression of a TetR-DOZI fusion protein. The 3’ flanking region of the SUB1 gene was then modified by incorporation of 10 Tet repressor-binding aptamers, following by limiting dilution cloning to obtain a genetically homogenous line called 1AC5. […] Complete details of the characterization of this parasite line will be provided in a separate manuscript.
as §2

For a further data set, the system named is HepG2 cells. Nature of the data set: Mammalian cell cytotoxicity assay (resazurin). It is filed as cell-based. To be noted: for CC50 (concentration that reduced cell viability by 50%): HepG2, 48 h treatment, resazurin, triplicate, tested up to 30 μM (1a), 200 μM (4c), 150 μM (tipifarnib). The method, then: HepG2 cells were cultured in Dulbecco’s Modified Eagle Medium with F12 GlutaMAX (DMEM/F12 GlutaMAX) (Gibco) supplemented with 10% (v/v) heat-inactivated foetal calf serum (FCS), 1% L-glutamine and 1% penicillin-streptomycin (10,000 U/ml), and maintained in a humidified 5% CO2 incubator at 37°C. The culture medium was changed every 2-3 days and cells were passaged when a confluency of 75-80% was reached. At passage 2 or above, HepG2 cells were harvested using 0.25% trypsin-0.53 mM EDTA (Gibco). Cell counts and cell viability were determined by an automated cell counting machine (vi-CELL, Beckman) and seeded at a density of 1x10^4-5x10^5 cells per well in a transparent flat-bottom 96-well plate (Corning), and maintained in a humidified 5% CO2 incubator at 37°C. […] As a vehicle control, 1% DMSO was used. After 48 hs, media was removed and replaced with 100 μl media containing 10% resazurin solution (Invitrogen) and incubated for 4 h at 37°C in 5% CO2. After 4 h, the solution was transferred to an opaque 96-well plate (Corning) to measure reduction of resazurin to resorufin using a SpectraMax M5 microplate reader (Molecular Devices LLC) (ex. 560 nm, em. 590 nm). Cells without treatment compounds were used to determine 100% viability. Cell viability was determined by measuring fluorescence as a % of solvent control. Concentration viability response curves, CC50 values, mean CC50 value and standard error were generated using GraphPad Prism 10 (GraphPad Software).

The target in data set [3] is T2, recombinant PfSUB1 (rPfSUB1) (Plasmodium falciparum, UniProt Q8I0V0).
T2 construct: made in house
T2 sequence (Q8I0V0 218-688): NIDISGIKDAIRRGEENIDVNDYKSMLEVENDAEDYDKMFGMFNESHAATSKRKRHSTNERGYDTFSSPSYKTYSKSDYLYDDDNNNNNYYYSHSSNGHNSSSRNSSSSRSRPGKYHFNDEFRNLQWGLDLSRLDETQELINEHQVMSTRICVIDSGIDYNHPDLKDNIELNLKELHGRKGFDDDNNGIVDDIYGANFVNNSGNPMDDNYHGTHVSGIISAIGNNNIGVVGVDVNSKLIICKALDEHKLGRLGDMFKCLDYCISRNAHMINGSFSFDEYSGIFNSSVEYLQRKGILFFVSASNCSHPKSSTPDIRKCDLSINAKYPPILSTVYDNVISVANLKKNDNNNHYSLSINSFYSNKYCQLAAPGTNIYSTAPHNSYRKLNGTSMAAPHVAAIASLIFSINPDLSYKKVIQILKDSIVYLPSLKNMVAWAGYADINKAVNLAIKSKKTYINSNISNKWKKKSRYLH
As to the kind of experiment: PfSUB1 enzyme assay (recombinant PfSUB1, fluorogenic peptide substrate). It is filed as biochemical. The method, then:
The proteolytic activity of rPfSUB1 was monitored by the cleavage of the fluorogenic peptidic substrate SERA4st1F-6R12 (Ac-[…]-OH) and has been described previously.[28] Briefly, chymotrypsin treated rPfSUB1 (expressed and purified as described before […] was stored at −80 °C as a 228 U/mL stock in 20 mM Tris−HCl pH 8.2, 150 mM NaCl, 10% glycerol, and diluted for use (1:500) in reaction buffer (20 mM Tris−HCl pH 8.2, 150 mM NaCl, 12 mM CaCl2, 25 mM CHAPS). Peptidic boronic acid inhibitors were dissolved in 100% DMSO at 20 mM, then further diluted in DMSO to generate stock solutions ranging from 500 to 0.01 μM and then used diluted 1:100 in the enzyme reactions. All reactions were performed in wells of white 96-well microwell plates (Nunc); 50 μL diluted rPfSUB1 was preincubated for 5 min with 1 μL each of the serially diluted boronic acid inhibitors, followed by addition of 50 μL substrate solution (0.1 μM final). Subsequent fluorescence increase was continuously monitored using a SpectraMax M5e plate reader and SoftMax Pro-6.3 software, with readings taken every 3 min for 60 min using excitation and emission values of 552 and 580 nm, respectively. […] All experiments were performed in duplicate.

Data set [4] relates to human 20S proteasome (H20S), chymotrypsin-like β5 activity. Nature of the data set: Human 20S proteasome kinetic assay (chymotrypsin-like β5 activity). To be noted: PfSUB1 vs H20S inhibition. It is filed as biochemical. As for the experimental part:
as §1

Where [5] appears, read: 2 erythrocytic cycles, SYBR green flow cytometry, triplicate, 95% confidence interval in parentheses.

SMILES strings stand for the structures. Several values for one entry are separate records, joined by “and”; a condition that tells them apart may be missing. Equal values may be shown once. Read-outs that look alike come from different tables or passages of the source. Bounds are passed on as bounds.

From PMC7616463, “Peptidic boronic acid Plasmodium falciparum SUB1 inhibitors with improved selectivity over human proteasome” (Journal of medicinal chemistry, 2024) come the findings set out here.

The IC50 is the concentration needed to halve the response being measured. In general, EC50 refers to the concentration at which the effect is half-maximal.

For the compound `CC(=O)N[C@H](C(=O)N[C@H](C(=O)NCC(=O)N[C@@H](C)B(O)O)C(C)C)C1CCCC1` [1a], in data set [1], the IC50 came to 32.8 ± 1.7 nM. For the same compound, the EC50 is 150 nM with P. falciparum line B11 (setting [5]) and 130 nM in data set [2]. Besides, the “CC50 (concentration that reduced cell viability by 50%)” value in the data set on HepG2 cells amounted to 11000 nM.
With `CC[C@H](C)[C@H](NC(=O)[C@@H](NC(=O)c1cc(C)cc(C)c1)C1CCCC1)C(=O)NCC(=O)N[C@H]1CCC(=O)OB1O` [4c, N-((S)-1-cyclopentyl-2-(((2S,3S)-1-((2-(((R)-2-hydroxy-6-oxo-1,2-oxaborinan-3-yl)amino)-2-oxoethyl)amino)-3-methyl-1-oxopentan-2-yl)amino)-2-oxoethyl)-3,5-dimethylbenzamide], the IC50 in data set [3] came out at 15.3 ± 0.1 nM. Further, the “selectivity versus H20S” value in data set [4] was above 60 fold. The results for the EC50 (in the data set on P. falciparum line B11 (setting [5]); in data set [2]) were 2260 nM and 160 nM, respectively. Further, the “fold higher sensitivity of 1AC5 line than of B11 line” value in data set [2] (growth inhibition, 1AC5 vs wild-type B11) is 13 fold and ~ 13 fold. Moreover, the “CC50 (concentration that reduced cell viability by 50%)” value in the data set with HepG2 cells stood at 296000 nM. Also, the “factor by which less toxic to HepG2 than 1a” value with HepG2 cells (HepG2 CC50 of 4c vs 1a) amounted to 27 fold.
For `C[C@H]1[C@H](OC(=O)CCC(=O)O)O[C@@H]2O[C@@]3(C)CC[C@H]4[C@H](C)CC[C@@H]1[C@@]24OO3` [Artesunate, artesunate, reference compound], the EC50 in the data set with P. falciparum line B11 (setting [5]) amounted to 3.7 nM; in data set [2] it was 4.87 nM.
For `Cn1cncc1[C@@](N)(c1ccc(Cl)cc1)c1ccc2c(c1)c(-c1cccc(Cl)c1)cc(=O)n2C` [Tipifarnib, reference compound], in the data set with HepG2 cells, the “CC50 (concentration that reduced cell viability by 50%)” value was found to be 30000 nM.
Consider `CCN(CC)CCCC(C)Nc1ccnc2cc(Cl)ccc12` (stereo not drawn) [CQ, chloroquine, reference compound], for which the half-maximal effective concentration (EC50) with P. falciparum line B11 is 5.36 nM; in data set [2] it was 5.74 nM.
As for `CC[C@H](C)[C@H](NC(=O)[C@@H](NC(=O)c1cccc(-c2ccccc2)n1)C1CCCC1)C(=O)NCC(=O)N[C@H]1CCC(=O)OB1O` [4b, N-((S)-1-cyclopentyl-2-(((2S,3S)-1-((2-(((R)-2-hydroxy-6-oxo-1,2-oxaborinan-3-yl)amino)-2-oxoethyl)amino)-3-methyl-1-oxopentan-2-yl)amino)-2-oxoethyl)-6-phenylpicolinamide], the IC50 was 13 ± 0.6 nM in data set [3] (rPfSUB1, substrate SERA4st1F-6R12 0.1 μM, 5 min preincubation, pH 8.2, fluorescence, duplicate, read-out: IC50, nM PfSUB1 inhibition) and 160 ± 10 nM in data set [1].
